Target: T1, AR protein (Homo sapiens, UniProt P10275, T878A)
T1 construct: The percent AR protein degradation induced by these compounds at various concentrations in LNCaP cells; host or cells: LNCaP
T1 sequence (P10275 1-920 T878A): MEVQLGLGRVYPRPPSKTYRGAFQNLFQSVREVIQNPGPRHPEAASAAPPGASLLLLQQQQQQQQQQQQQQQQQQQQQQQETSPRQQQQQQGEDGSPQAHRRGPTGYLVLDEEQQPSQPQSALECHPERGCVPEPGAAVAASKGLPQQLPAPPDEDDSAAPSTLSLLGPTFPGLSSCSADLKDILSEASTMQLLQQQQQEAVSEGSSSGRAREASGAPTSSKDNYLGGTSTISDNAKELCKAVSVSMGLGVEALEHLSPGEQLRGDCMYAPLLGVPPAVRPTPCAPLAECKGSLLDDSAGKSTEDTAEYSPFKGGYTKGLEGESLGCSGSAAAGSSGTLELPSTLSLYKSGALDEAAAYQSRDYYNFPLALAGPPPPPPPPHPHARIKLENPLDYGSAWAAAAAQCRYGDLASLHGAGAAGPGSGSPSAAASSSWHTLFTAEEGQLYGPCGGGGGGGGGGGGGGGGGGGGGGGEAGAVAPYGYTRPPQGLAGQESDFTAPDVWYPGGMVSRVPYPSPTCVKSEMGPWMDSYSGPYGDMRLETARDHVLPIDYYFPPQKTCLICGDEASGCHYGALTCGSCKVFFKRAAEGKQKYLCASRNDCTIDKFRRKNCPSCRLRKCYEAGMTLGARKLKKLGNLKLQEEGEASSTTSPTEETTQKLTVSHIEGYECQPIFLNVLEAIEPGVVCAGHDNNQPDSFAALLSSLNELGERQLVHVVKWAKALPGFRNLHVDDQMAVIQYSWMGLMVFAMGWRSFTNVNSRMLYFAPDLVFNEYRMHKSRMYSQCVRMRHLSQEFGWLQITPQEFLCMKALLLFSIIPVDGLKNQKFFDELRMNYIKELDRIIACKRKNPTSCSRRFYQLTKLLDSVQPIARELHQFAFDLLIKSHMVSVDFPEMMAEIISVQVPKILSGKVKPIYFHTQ
Assay: AR protein degradation in LNCaP cells (Western blotting)
Format: cell-based
Conditions: treatment time 6 h, average of three independent experiments; for Dmax at 0.01 µM / Dmax at 0.1 µM / Dmax at 1 µM / Dmax at 10 µM: LNCaP; for Dmax at 0.1 µM / Dmax at 1 µM / Dmax at 10 µM: read-out: % AR protein degradation in LNCaP Cells
Method: Cell lines and Cell Culture: All the LNCaP, VCaP and 22RV1 cells used were purchased from American Type Culture Collection (ATCC). […] All of the cells were supplemented with 10% fetal bovine serum (Invitrogen) at 37° C. in a humidified 5% CO2 incubator.
Western Blotting. Treated cells were lysed by RIPA buffer supplemented with protease and phosphatase inhibitors. […] Software ImageJ was used to quantify the percentage of AR degradation. The net protein bands and loading controls are calculated by deducting the background from the inverted band value. The final relative quantification values are the ratio of net band to net loading control.

| Compound | Dmax at 0.01 µM (0.01 μM) [%] | Dmax at 0.1 µM (0.1 μM) [%] | Dmax at 1 µM (1 μM) [%] | Dmax at 10 µM (10 μM) [%] | % AR protein degradation in LNCaP Cells (0.1 μM) [%] | % AR protein degradation in LNCaP Cells (1 μM) [%] | % AR protein degradation in LNCaP Cells (10 μM) [%] | % AR protein degradation in LNCaP Cells (0.01 μM) [%] |
| --- | --- | --- | --- | --- | --- | --- | --- | --- |
| Cc1ncsc1-c1ccc(CNC(=O)C2C[C@@H](O)CN2C(=O)[C@@H](NC(=O)CCCCCCc2ccc(C#Cc3ccc(N4C(=S)N(c5ccc(C#N)c(C(F)(F)F)c5)C(=O)C4(C)C)cc3)cn2)C(C)(C)C)cc1 (stereo partly drawn) [Compound 19, (4R)-1-((S)-2-(7-(5-((4-(3-(4-Cyano-3-(trifluoromethyl)phenyl)-5,5-dimethyl-4-oxo-2-thioxoimidazolidin-1-yl)phenyl)ethynyl)pyridin-2-yl)heptanamido)-3,3-dimethylbutanoyl)-4-hydroxy-N-(4-(4-methylthiazol-5-yl)benzyl)pyrrolidine-2-carboxamide] | 30 | 63 | 96 |  |  |  |  |  |
| Cc1ncsc1-c1ccc(CNC(=O)C2C[C@@H](O)CN2C(=O)[C@@H](NC(=O)CCCN2CCN(c3ccc(C#Cc4ccc(N5C(=S)N(c6ccc(C#N)c(C(F)(F)F)c6)C(=O)C5(C)C)cc4)cn3)CC2)C(C)(C)C)cc1 (stereo partly drawn) [Compound 20, (4R)-1-((S)-2-(4-(4-(5-((4-(3-(4-Cyano-3-(trifluoromethyl)phenyl)-5,5-dimethyl-4-oxo-2-thioxoimidazolidin-1-yl)phenyl)ethynyl)pyridin-2-yl)piperazin-1-yl)butanamido)-3,3-dimethylbutanoyl)-4-hydroxy-N-(4-(4-methylthiazol-5-yl)benzyl)pyrrolidine-2-carboxamide] |  | 50 | 80 | 80 |  |  |  |  |
| Cc1ncsc1-c1ccc([C@H](C)NC(=O)C2C[C@@H](O)CN2C(=O)[C@@H](NC(=O)CCCN2CCN(c3ccc(C#Cc4ccc(N5C(=S)N(c6ccc(C#N)c(C(F)(F)F)c6)C(=O)C5(C)C)cc4)cn3)CC2)C(C)(C)C)cc1 (stereo partly drawn) [Compound 21, (4R)-1-((S)-2-(4-(4-(5-((4-(3-(4-Cyano-3-(trifluoromethyl)phenyl)-5,5-dimethyl-4-oxo-2-thioxoimidazolidin-1-yl)phenyl)ethynyl)pyridin-2-yl)piperazin-1-yl)butanamido)-3,3-dimethylbutanoyl)-4-hydroxy-N—((S)-1-(4-(4-methylthiazol-5-yl)phenyl)ethyl)pyrrolidine-2-carboxamide] | 37 | 61 | 92 |  |  |  |  |  |
| Cc1ncsc1-c1ccc([C@H](C)NC(=O)[C@@H]2C[C@@H](O)CN2C(=O)[C@@H](NC(=O)CCCCN2CCN(c3ccc(C#Cc4ccc(N5C(=S)N(c6ccc(C#N)c(C(F)(F)F)c6)C(=O)C5(C)C)cc4)cn3)CC2)C(C)(C)C)cc1 [Compound 22, (2S,4R)-1-((S)-2-(5-(4-(5-((4-(3-(4-Cyano-3-(trifluoromethyl)phenyl)-5,5-dimethyl-4-oxo-2-thioxoimidazolidin-1-yl)phenyl)ethynyl)pyridin-2-yl)piperazin-1-yl)pentanamido)-3,3-dimethylbutanoyl)-4-hydroxy-N—((S)-1-(4-(4-methylthiazol-5-yl)phenyl)ethyl)pyrrolidine-2-carboxamide] | 28 | 48 | 89 |  |  |  |  |  |
| Cc1ncsc1-c1ccc([C@H](C)NC(=O)C2C[C@@H](O)CN2C(=O)[C@@H](NC(=O)CCN2CCN(c3ccc(C#Cc4ccc(N5C(=S)N(c6ccc(C#N)c(C(F)(F)F)c6)C(=O)C5(C)C)cc4)cn3)CC2)C(C)(C)C)cc1 (stereo partly drawn) [Compound 23, (4R)-1-((S)-2-(3-(4-(5-((4-(3-(4-Cyano-3-(trifluoromethyl)phenyl)-5,5-dimethyl-4-oxo-2-thioxoimidazolidin-1-yl)phenyl)ethynyl)pyridin-2-yl)piperazin-1-yl)propanamido)-3,3-dimethylbutanoyl)-4-hydroxy-N—((S)-1-(4-(4-methylthiazol-5-yl)phenyl)ethyl)pyrrolidine-2-carboxamide] | 34 | 51 | 78 |  |  |  |  |  |
| Cc1ncsc1-c1ccc([C@H](C)NC(=O)C2C[C@@H](O)CN2C(=O)[C@@H](NC(=O)CN2CCN(c3ccc(C#Cc4ccc(N5C(=S)N(c6ccc(C#N)c(C(F)(F)F)c6)C(=O)C5(C)C)cc4)cn3)CC2)C(C)(C)C)cc1 (stereo partly drawn) [Compound 24, (4R)-1-((S)-2-(2-(4-(5-((4-(3-(4-Cyano-3-(trifluoromethyl)phenyl)-5,5-dimethyl-4-oxo-2-thioxoimidazolidin-1-yl)phenyl)ethynyl)pyridin-2-yl)piperazin-1-yl)acetamido)-3,3-dimethylbutanoyl)-4-hydroxy-N—((S)-1-(4-(4-methylthiazol-5-yl)phenyl)ethyl)pyrrolidine-2-carboxamide] |  | 3 | 31 | 28 |  |  |  |  |
| Cc1ncsc1-c1ccc([C@H](C)NC(=O)C2C[C@@H](O)CN2C(=O)[C@@H](NC(=O)N2CCN(c3ccc(C#Cc4ccc(N5C(=S)N(c6ccc(C#N)c(C(F)(F)F)c6)C(=O)C5(C)C)cc4)cn3)CC2)C(C)(C)C)cc1 (stereo partly drawn) [Compound 25, 4-(5-((4-(3-(4-Cyano-3-(trifluoromethyl)phenyl)-5,5-dimethyl-4-oxo-2-thioxoimid-azolidin-1-yl)phenyl)ethynyl)pyridin-2-yl)-N-((2S)-1-((4R)-4-hydroxy-2-(((S)-1-(4-(4-methylthiazol-5-yl)phenyl)ethyl)carbamoyl)pyrrolidin-1-yl)-3,3-dimethyl-1-oxobutan-2-yl)piperazine-1-carboxamide] |  |  |  |  | 0 | 12 | 0 |  |
| Cc1cc([C@H](C(=O)N2C[C@H](O)C[C@H]2C(=O)N[C@@H](CC(=O)NCCCCCCCCCNC(=O)c2ccc(N3C(=S)N(c4ccc(C#N)c(C(F)(F)F)c4)C(=O)C3(C)C)cc2F)c2ccc(-c3scnc3C)cc2)C(C)C)on1 [Compound 26, (2S,4R)—N—((S)-3-((9-(4-(3-(4-Cyano-3-(trifluoromethyl)phenyl)-5,5-dimethyl-4-oxo-2-thioxoimidazolidin-1-yl)-2-fluorobenzamido)nonyl)amino)-1-(4-(4-methylthiazol-5-yl)phenyl)-3-oxopropyl)-4-hydroxy-1-((R)-3-methyl-2-(3-methylisoxazol-5-yl)butanoyl)pyrrolidine-2-carboxamide] | 11 | 50 | 87 |  |  |  |  |  |
| Cc1cc([C@H](C(=O)N2C[C@H](O)C[C@H]2C(=O)N[C@@H](CC(=O)NCCCN2CCN(c3ccc(C#Cc4ccc(N5C(=S)N(c6ccc(C#N)c(C(F)(F)F)c6)C(=O)C5(C)C)cc4)cn3)CC2)c2ccc(-c3scnc3C)cc2)C(C)C)on1 [Compound 27, (2S,4R)—N—((S)-3-((3-(4-(5-((4-(3-(4-Cyano-3-(trifluoromethyl)phenyl)-5,5-dimethyl-4-oxo-2-thioxoimidazolidin-1-yl)phenyl)ethynyl)pyridin-2-yl)piperazin-1-yl)propyl)amino)-1-(4-(4-methylthiazol-5-yl)phenyl)-3-oxopropyl)-4-hydroxy-1-((R)-3-methyl-2-(3-methylisoxazol-5-yl)butanoyl)pyrrolidine-2-carboxamide] | 27 | 75 | 94 |  |  |  |  |  |
| Cc1cc([C@H](C(=O)N2C[C@H](O)C[C@H]2C(=O)N[C@@H](CC(=O)N2CCN(c3ccc(C#Cc4ccc(C(=O)N[C@H]5C(C)(C)[C@H](Oc6ccc(C#N)c(Cl)c6)C5(C)C)cc4)cn3)CC2)c2ccc(-c3scnc3C)cc2)C(C)C)on1 [Compound 28, (2S,4R)—N—((S)-3-(4-(5-((4-(((1r,3r)-3-(3-Chloro-4-cyanophenoxy)-2,2,4,4-tetramethylcyclobutyl)carbamoyl)phenyl)ethynyl)pyridin-2-yl)piperazin-1-yl)-1-(4-(4-methylthiazol-5-yl)phenyl)-3-oxopropyl)-4-hydroxy-1-((R)-3-methyl-2-(3-methylisoxazol-5-yl)butanoyl)pyrrolidine-2-carboxamide] |  |  |  |  | 72 | 93 |  | 22 |

Source: patent publication US20220081435A1, “ANDROGEN RECEPTOR PROTEIN DEGRADERS” (THE REGENTS OF THE UNIVERSITY OF MICHIGAN, priority 2019, published 2022)
